Laboratory results: ChEMBL document CHEMBL1122587 (J Med Chem, 1984)
Numbered stars: 1 amine (or outer) side, 2 acyl side, 3 side chain; on linkers, the order of the positions; unused ones are H or OH. Bridge positions count the residues as written; N and C are the ends. Square brackets hold non-standard residues; d marks the D form. Peptide text beside a SMILES is read from it. I, II: the chains in the order shown. Actinocin(9to1) = Cc1c2oc3c(C)ccc(C(=O)[*:1])c3nc-2c(C(=O)[*:2])c(N)c1=O; NMeV = CN[C@H](C(=O)O)C(C)C; Sar = CNCC(=O)O

Experiments:
Format in all cases: physicochemical
[1] = Partition coefficient (logP); settings: octanol/water
[2] = log P value was reported at a pH 2.0; settings: buffer
[3] = Partition coefficient (logD) (0.1 N NaOH)

| Compound | logP ([1]; read-out: logP) | also measured |
| --- | --- | --- |
| COc1cccc2c1C(=O)c1c(O)c3c(c(O)c1C2=O)C[C@@](O)(C(=O)CO)C[C@@H]3O[C@H]1C[C@H](N)[C@H](O)[C@H](C)O1 [DOXORUBICIN] | 0.1 |  |
| COc1ccc(C[C@H](N)C(=O)N[C@H]2[C@@H](O)[C@H](n3cnc4c(N(C)C)ncnc43)O[C@@H]2CO)cc1 [PUROMYCIN] | 0.03 |  |
| CN(Cc1cnc2nc(N)nc(N)c2n1)c1ccc(C(=O)N[C@@H](CCC(=O)O)C(=O)O)cc1 [METHOTREXATE] |  | logD [2]: -2.59 |
| COCCOc1c(OC)cc(Cc2cnc(N)nc2N)cc1OC [TETROXOPRIM] |  | logD ([3]; octanol/water): 0.6 |
| CO[C@@]12[C@H](COC(N)=O)C3=C(C(=O)C(C)=C(N)C3=O)N1C[C@@H]1N[C@@H]12 [MITOMYCIN] |  | logP [1]: -0.47 |
| CISPLATIN |  | logP [1]: -1.45 |
| COc1ccc(OC)c(Cc2cnc3nc(N)nc(N)c3c2C)c1 [PIRITREXIM] |  | logD ([3]; 0.1 N NaOH, read-out: logD): 2.13 |

Further lines, with some results ahead:

| logP ([1]; read-out: logP) | Compound | also measured |
| --- | --- | --- |
| 0.66 | COc1cccc2c1C(=O)c1c(O)c3c(c(O)c1C2=O)C[C@@](O)(C(C)=O)C[C@@H]3O[C@H]1C[C@H](N)[C@H](O)[C@H](C)O1 [DAUNORUBICIN] |  |
| 3.21 | Cc1c2oc3c(C)ccc(C(=O)N[C@@H]4C(=O)N[C@H](C(C)C)C(=O)N5CCC[C@H]5C(=O)N(C)CC(=O)N(C)[C@@H](C(C)C)C(=O)O[C@@H]4C)c3nc-2c(C(=O)N[C@@H]2C(=O)N[C@H](C(C)C)C(=O)N3CCC[C@H]3C(=O)N(C)CC(=O)N(C)[C@@H](C(C)C)C(=O)O[C@@H]2C)c(N)c1=O [DACTINOMYCIN] (I: T[dV]P[Sar][NMeV] / II: T[dV]P[Sar][NMeV]; ester I:1-I:C, II:1-II:C; linker I:N-II:N via Actinocin(9to1)) |  |
| -1.8 | NC(=O)NO [HYDROXYUREA] |  |
